Results taken from PMC7966987, “Insights into the catalytic properties of the mitochondrial rhomboid protease PARL” (The Journal of Biological Chemistry, 2021).

Legend:
Format in all cases: biochemical
PARLΔ77 [1] = target: T1, PARLΔ77 (Homo sapiens, UniProt Q9H300); assay: IQ-peptide substrate cleavage kinetics, PARLΔ77 in proteoliposomes; conditions: PARLΔ77 in PLs (E. coli polar lipids), 50 mM Tris-HCl pH 7.0, 150 mM NaCl, 10% glycerol, no DDM, 37 °C, mean ± SEM
T1 construct: GFP-hexahistidine (behind a TEV cleavage site) (C, cleaved yes); made in house; host or cells: Pichia pastoris
T1 sequence (Q9H300 78-379): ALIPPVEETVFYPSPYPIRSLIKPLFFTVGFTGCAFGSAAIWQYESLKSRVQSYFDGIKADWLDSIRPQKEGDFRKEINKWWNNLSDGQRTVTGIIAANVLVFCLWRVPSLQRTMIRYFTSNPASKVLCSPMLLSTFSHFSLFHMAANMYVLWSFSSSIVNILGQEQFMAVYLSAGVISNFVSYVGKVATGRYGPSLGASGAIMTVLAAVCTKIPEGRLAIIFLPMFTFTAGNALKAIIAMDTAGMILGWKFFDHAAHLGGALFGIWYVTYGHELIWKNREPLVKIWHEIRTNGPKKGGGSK

human PARLΔ55 = target: T2, human PARLΔ55 (Homo sapiens, UniProt Q9H300); assay: IQ-peptide substrate cleavage kinetics, full-length PARLΔ55 in detergent; conditions: for Km / kcat (turnover rate) / kcat/KM (catalytic efficiency): PARLΔ55 0.8 μM in 0.1% DDM with CL, 50 mM Tris-HCl pH 7.0, 150 mM NaCl, 10% glycerol, 5% DMSO, 37 °C, fluorescence, mean ± SEM
T2 construct: to generate full-length (FL) starting at residue 55 or the β-cleavage form truncated at residue 77; GFP-hexahistidine (behind a TEV cleavage site) (C, cleaved yes); made in house; host or cells: Pichia pastoris
T2 sequence (Q9H300 56-379): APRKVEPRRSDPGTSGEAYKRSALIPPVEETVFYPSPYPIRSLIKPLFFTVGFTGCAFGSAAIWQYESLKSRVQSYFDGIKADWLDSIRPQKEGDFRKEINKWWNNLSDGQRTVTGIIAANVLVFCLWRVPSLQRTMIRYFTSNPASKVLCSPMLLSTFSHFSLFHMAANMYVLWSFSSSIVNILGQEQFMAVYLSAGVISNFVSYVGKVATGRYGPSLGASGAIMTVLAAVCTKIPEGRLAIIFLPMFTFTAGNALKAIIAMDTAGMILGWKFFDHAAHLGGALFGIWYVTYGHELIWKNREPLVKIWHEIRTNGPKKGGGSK
Excerpt: (§1) To further evaluate the cleavage of other known substrates of PARL, we adopted a more facile system to examine cleavage of multiple substrates and generated internally quenched (IQ) peptide substrates ([25], [36], [37], [38]) based on the amino acids flanking the PARL cleavage sites of PINK1 ([39]), PGAM5 ([8]), and Smac/Diablo ([11]). […] The assay allowed us to determine the catalytic parameters for the three primary PARL substrates and examine the substrate specificity (Fig. 2, Tables S2–S4).
(§2) Assays with FRET-PINK1^70–134 were conducted as previously described ([26]). For EDANS/Dabcyl 10-mer IQ peptides (PINK1, PGAM5, Smac/Diablo), lyophilized peptides were initially dissolved in DMSO to obtain a stock solution. The IQ peptide substrates in a concentration range of 0.1–70 μM were incubated with activity assay buffer (50 mM Tris-HCl pH 7.0, 150 mM NaCl, 10% glycerol, 0.1% DDM) in a 384-well black-bottomed plate at 37 °C for 30 min in a multiwell plate reader (SynergyMx, BioTek). For all concentrations of IQ peptide, the DMSO was kept constant at 5%. Following preincubation, PARL was added to a final concentration of 0.8 μM to initiate the cleavage reaction. Fluorescence readings were taken every 3 min over a 3 h time course at ƛex = 336 nm and ƛem = 490 nm. The initial velocity was determined from the fluorescence readings over the time course. For each substrate concentration, a no-enzyme control was subtracted to eliminate background fluorescence changes not related to substrate cleavage. Relative fluorescence units were converted to concentration (μM) by determining the maximum change in fluorescence observed for each substrate concentration when fully digested. GraphPad Prism software was used for Michaelis–Menten analysis of kinetic curves. All kinetic data were obtained using at least three biological replicates (different enzyme preparations) with technical duplicates for each experiment. For kinetic measurements in detergent with all three substrates, the activity assays were repeated at least five times. In addition, after each protease purification, the quality control of purified PARL was controlled by measuring its enzymatic activity. Minimum of three experimental replicates with two technical replicates were used for data analysis.

human PARLΔ77 = assay: IQ-peptide substrate cleavage kinetics, β-cleavage PARLΔ77 in detergent; conditions: for fold change Km/kcat, PARLΔ77/PARLΔ55 / fold change kcat, PARLΔ77/PARLΔ55: PARL in DDM; for turnover rate with PARLΔ77 compared with PARLΔ55 / ranking of substrate cleavage: in detergent; for ranking of substrate cleavage: PARLΔ55 and PARLΔ77, by kcat or kcat/KM
Excerpt: as §1, §2

PARLΔ77 [2] = target: T1, PARLΔ77; assay: as above; conditions: PARLΔ77 0.8 μM in 0.1% DDM with CL, 50 mM Tris-HCl pH 7.0, 150 mM NaCl, 10% glycerol, 5% DMSO, 37 °C, fluorescence; mean ± SEM
Excerpt: as §1, §2

Substance	Km (PARLΔ77 [1])	kcat (turnover rate) (PARLΔ77 [1])	kcat/KM (catalytic efficiency) (PARLΔ77 [1]; listed as PGAM5)	kcat/KM (catalytic efficiency) (PARLΔ77 [1]; listed as PGAM520-29)	substrate turnover with PARLΔ55 compared with PARLΔ77 (human PARLΔ55)	Km (human PARLΔ55)	kcat (turnover rate) (human PARLΔ55)	kcat/KM (catalytic efficiency) (human PARLΔ55)	fold change Km/kcat, PARLΔ77/PARLΔ55 (human PARLΔ77)	fold change kcat, PARLΔ77/PARLΔ55 (human PARLΔ77)	turnover rate with PARLΔ77 compared with PARLΔ55 (human PARLΔ77)	ranking of substrate cleavage (human PARLΔ77)	Km (PARLΔ77 [2])	kcat (turnover rate) (PARLΔ77 [2])	kcat/KM (catalytic efficiency) (PARLΔ77 [2])	kcat/KM (catalytic efficiency) (PARLΔ77 [1])	kcat (turnover rate) (PARLΔ77 [1]; listed as Smac/Diablo)	kcat (turnover rate) (PARLΔ77 [1]; listed as Smac/Diablo51-60)	turnover rate with PARLΔ77 compared with PARLΔ55 (human PARLΔ77; listed as IQ-Smac/Diablo)	turnover rate with PARLΔ77 compared with PARLΔ55 (human PARLΔ77; listed as Smac/Diablo)
(DABCYL)-AVFLSAVAVG-Glu(EDANS) [IQ-PGAM5^20–29, internally quenched DABCYL/EDANS peptide substrate based on PGAM5 PARL cleavage site]	0.8 ± 0.2 µM	0.00583 ± 0.00028 s⁻¹	7220 ± 2200 M⁻¹ s⁻¹	7220 ± 2200 M⁻¹ s⁻¹	significantly lower substrate turnover	0.47 ± 0.07 µM	0.000128 ± 5.6e-06 s⁻¹	278 ± 83 M⁻¹ s⁻¹	0.6 fold	2 fold	increased	most efficiently cleaved	1.6 ± 0.2 µM	0.000272 ± 1.1e-05 s⁻¹	170 ± 28 M⁻¹ s⁻¹					
(DABCYL)-AVFLAFGLGL-Glu(EDANS) [IQ-PINK1^99–108, internally quenched DABCYL/EDANS peptide substrate based on PINK1 PARL cleavage site]	8 ± 1 µM	0.00778 ± 0.00056 s⁻¹			significantly lower substrate turnover	1.9 ± 0.4 µM	0.000117 ± 8.3e-06 s⁻¹	61.1 ± 22 M⁻¹ s⁻¹	2 fold	3 fold	increased		3.3 ± 0.5 µM	0.000361 ± 2.8e-05 s⁻¹	110 ± 28 M⁻¹ s⁻¹	972 ± 170 M⁻¹ s⁻¹				
(DABCYL)-GVT LCAVPIA-Glu(EDANS) [IQ-Smac/Diablo^51–60, internally quenched DABCYL/EDANS peptide substrate based on Smac/Diablo PARL cleavage site]	17 ± 4 µM					6 ± 1 µM	0.000361 ± 2.8e-05 s⁻¹	83 ± 28 M⁻¹ s⁻¹	1 fold	1 fold		fastest cleaved	5 ± 1 µM	0.000333 ± 2.8e-05 s⁻¹	83 ± 28 M⁻¹ s⁻¹	944 ± 280 M⁻¹ s⁻¹	0.0161 ± 0.0019 s⁻¹	0.0161 ± 0.0019 s⁻¹	no significant difference	remained unchanged
